The subject of test [1] is Human whole blood, IL-1β production. In words: Whole blood assay for IL-1β production. In kind it is cell-based. The note with it: LPS-stimulated whole blood, IL-1β by ELISA. The gist of the method: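 LPS-stimulated (5.0 ng/ml final) human whole blood incubated with test compound in saline (or plasma/PBS-5% DMSO for hydrophobic compounds) at 30° C for 16-18 hr. Plasma IL-1β then measured by ELISA at 1:200 dilution, against no-LPS, no-inhibitor and vehicle controls.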

Test [2] has as its system Human Peripheral Blood Mononuclear Cells (PBMC), mature IL-1β. The experiment in a line: PBMC cell assay: IL-1β assay with human peripheral blood mononuclear cells. Format: cell-based. The note with it: LPS-stimulated human PBMC, mature IL-1β in supernatant by ELISA. The gist of the method: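 Donor PBMC (suspension at 6×10^6 cells/ml) or adherent-enriched monocytes were stimulated with 5 ng/ml LPS (final) alongside 5–6 compound dilutions bracketing the ICE Ki, at 0.1% DMSO final, for 16–18 hr at 37° C, 5% CO2. Mature IL-1β in supernatants was measured by ELISA; IC50 was calculated relative to LPS-only controls.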

In the next test the target is T1, Caspase-1 (Homo sapiens, UniProt P29466).
T1 sequence (P29466 120-297 limits assumed): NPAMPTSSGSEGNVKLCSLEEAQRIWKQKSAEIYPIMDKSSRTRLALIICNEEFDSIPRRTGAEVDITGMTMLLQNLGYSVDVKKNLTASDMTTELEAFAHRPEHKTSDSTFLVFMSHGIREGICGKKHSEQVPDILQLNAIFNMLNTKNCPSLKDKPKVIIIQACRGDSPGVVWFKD
T1 sequence (P29466 317-404 limits assumed): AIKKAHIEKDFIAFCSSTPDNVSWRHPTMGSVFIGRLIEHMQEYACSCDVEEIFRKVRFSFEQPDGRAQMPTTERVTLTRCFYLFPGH
The experiment in a line: Caspase-1 enzyme inhibition (Ki). Format: biochemical. Conditions: substrate Suc-YVAD-pNA 80 μM, 37° C., pH 7.5. The gist of the method: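 Ki obtained by fitting rate versus inhibitor concentration to the Morrison tight-binding equation for competitive inhibitors, with pNA release read at 405 nm at 37 °C. Substrate Suc-YVAD-pNA (80 μM final) added after 15 min enzyme–inhibitor preincubation in Tris pH 7.5 buffer with DTT and CHAPS.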

Where a SMILES comes first, the peptide text is derived from it. [ ]: non-standard residue; d: D form. The star is where a group is joined. Aze = O=C(O)[C@@H]1CCN1; Bz = O=C(c1ccccc1)* A value given as a limit tells only on which side of the number the result lay.

For the molecule `CS(=O)(=O)CC[C@H](NC(=O)c1cc(Cl)c(O)c(Cl)c1)C(=O)N1CCC[C@H]1C(=O)N[C@H](C=O)CC(=O)O` [Example 20p, 3-({1-[2-(3,5-dichloro-4-hydroxy-benizoylamino)-4-methanesulfonyl-butyryl]-pyrrolidine-2-carbonyl}-amino)-4-oxo-butyric acid], the IC50 in test [1] is less than 2500 nM; in test [2] it was less than 500 nM. On Caspase-1, this molecule returned a Ki of less than 10 nM.
For `CCC(C)[C@H](NC(=O)c1ccc(N)c(Cl)c1)C(=O)N1CCC[C@H]1C(=O)N[C@H](C=O)CC(=O)O` (stereo partly drawn) [Example 20q], the IC50 in test [1] was more than 7500 nM; in test [2], 500 to 1000 nM. The molecule also returned a Ki at Caspase-1 of 10 to 1000 nM.
On the same counts, the results for `CS(=O)(=O)C[C@H](NC(=O)c1nccc2ccccc12)C(=O)N1CCC[C@H]1C(=O)N[C@H](C=O)CC(=O)O` [Example 20r, 3-[(1-{2-[(isoquinoline-1-carbonyl)-amino]-3-methanesulfonyl-propionyl}-pyrrolidine-2-carbonyl)-amino]-4-oxo-butyric acid] are 2500 to 7500 nM, 500 to 1000 nM and 10 to 1000 nM.
`CS(=O)(=O)CC(NC(=O)c1cc(Cl)c(O)c(Cl)c1)C(=O)N1CCCC1C(=O)NC(C=O)CC(=O)O` (stereo not drawn) [Example 20s, 3-({1-[2-(3,5-dichloro-4-hydroxy-benzoylamino)-3-methanesulfonyl-propionyl]-pyrrolidine-2-carbonyl}-amino)-4-oxo-butyric acid]: the IC50 in test [1] was less than 2500 nM; in test [2], 1000 to 2000 nM. The Ki on Caspase-1 is less than 10 nM.
As for `CS(=O)(=O)C[C@H](NC(=O)c1ccc(N)c(Cl)c1)C(=O)N1CCC[C@H]1C(=O)N[C@H](C=O)CC(=O)O` [Example 20t], the values for the IC50 in test [1] and in test [2] were less than 2500 nM and 500 to 1000 nM, respectively. For the same molecule, the Ki on Caspase-1 fell in the range of 10 to 1000 nM.
`CC(NC(=O)c1ccc(N)c(Cl)c1)C(=O)N1N=CC(C)C1C(=O)NC(C=O)CC(=O)O` (stereo not drawn) [Example 23g, 3-({2-[2-(4-Amino-3-chloro-benzoylamino)-propionyl]-4-methyl-3,4-dihydro-2H-pyrazole-3-carbonyl}-amino)-4-oxo-butyric acid]: the IC50 is less than 2500 nM in test [1] and 1000 to 2000 nM in test [2]. This molecule showed a Ki on Caspase-1 of less than 10 nM.
For `COC1CC(C(=O)NC(C=O)CC(=O)O)N(C(=O)C(C)NC(=O)c2ccc(N)c(Cl)c2)C1` (stereo not drawn) [Example 23i, 3-({1-[2-(4-amino-3-chloro-benzoylamino)-propionyl]-4-methoxy-pyrrolidine-2-carbonyl}-amino)-4-oxo-butyric acid], in that order: 2500 to 7500 nM, less than 500 nM and 10 to 1000 nM.
On to `CC(C)[C@H](NC(=O)c1ccccc1)C(=O)N1CC[C@H]1C(=O)N[C@H](C=O)CC(=O)O` [Example 24d] (Bz-Val-[Aze]-Asp-aldehyde), for which the IC50 lay in the range of 2500 to 7500 nM in test [1] and 500 to 1000 nM in test [2]. The molecule also came in with a Ki on Caspase-1 of 10 to 1000 nM.
For `C[C@H](NC(=O)c1nccc2ccccc12)C(=O)N1CCCC[C@H]1C(=O)N[C@H](C=O)CC(=O)O` [Example 25a], in that order: 2500 to 7500 nM, less than 500 nM and less than 10 nM.
On the same counts, the results for `CC(C)[C@H](NC(=O)c1nccc2ccccc12)C(=O)N1CCCC[C@H]1C(=O)N[C@H](C=O)CC(=O)O` [Example 25b] are 2500 to 7500 nM, 500 to 1000 nM and less than 10 nM.
For `CC(C)(C)[C@H](NC(=O)c1nccc2ccccc12)C(=O)N1CCCC[C@H]1C(=O)N[C@H](C=O)CC(=O)O` [Example 25c], the values for the half-inhibitory concentration (IC50) in test [1] and in test [2] were 2500 to 7500 nM and 500 to 1000 nM, respectively. On Caspase-1, this molecule yielded an inhibitory constant (Ki) of less than 10 nM.
For `COc1ccc(C(=O)N[C@H](C(=O)N2C3CCCCC3C[C@H]2C(=O)N[C@H](C=O)CC(=O)O)C(C)C)cc1` (stereo partly drawn) [Example 26d], in that order: less than 2500 nM, 500 to 1000 nM and less than 10 nM.
For `CC(C)[C@H](NC(=O)c1nccc2ccccc12)C(=O)N1C[C@H](c2ccccc2)C[C@H]1C(=O)N[C@H](C=O)CC(=O)O` [Example 26h], in that order: less than 2500 nM, less than 500 nM and less than 10 nM.
On the same counts, the results for `CC(C)[C@H](NC(=O)c1nccc2ccccc12)C(=O)N1CSC(C)(C)[C@H]1C(=O)N[C@H](C=O)CC(=O)O` [Example 28c] are more than 7500 nM, 500 to 1000 nM and less than 10 nM.
On to `C[C@H](NC(=O)c1nccc2ccccc12)C(=O)N[C@@H](C)C(=O)N[C@H](C=O)CC(=O)O` [Example 29c], for which the figures for the concentration for half-maximal inhibition (IC50) in test [1] and in test [2] were less than 2500 nM and 500 to 1000 nM, respectively. In addition, the inhibitory constant (Ki) at Caspase-1 was less than 10 nM.
Take `C[C@H](NC(=O)c1cccc2ccccc12)C(=O)N[C@@H](C)C(=O)N[C@H](C=O)CC(=O)O` [Example 29d]: the IC50 was less than 2500 nM in test [1] and 500 to 1000 nM in test [2]. The same molecule gave an inhibitory constant (Ki) at Caspase-1 of less than 10 nM.
As to `Cc1cc(C(=O)N[C@H](C(=O)N[C@@H](C)C(=O)N[C@H](C=O)CC(=O)O)C(C)C)cc(C)c1O` [Example 29e], the IC50 was less than 2500 nM in test [1] and less than 500 nM in test [2]. The molecule also yielded an inhibition constant Ki at Caspase-1 of less than 10 nM.
As to `Cc1cc(C(=O)N[C@@H](C)C(=O)N[C@@H](C)C(=O)N[C@H](C=O)CC(=O)O)cc(C)c1O` [Example 29h], the IC50 in test [1] was less than 2500 nM; in test [2] it was less than 500 nM. The molecule further yielded a Ki at Caspase-1 of less than 10 nM.
Consider `CC(C)[C@H](NC(=O)c1cc2ccccc2[nH]1)C(=O)N[C@@H](C)C(=O)N[C@H](C=O)CC(=O)O` [Example 29i], for which the values for the IC50 in test [1] and in test [2] were less than 2500 nM and less than 500 nM, respectively. The inhibition constant Ki on Caspase-1 is less than 10 nM.
On to `C[C@H](NC(=O)[C@@H](NC(=O)c1cc2ccccc2[nH]1)C(C)(C)C)C(=O)N[C@H](C=O)CC(=O)O` [Example 29j], for which the IC50 in test [1] is less than 2500 nM; in test [2], 500 to 1000 nM. The Ki on Caspase-1 was less than 10 nM.
In the case of `C[C@H](NC(=O)[C@@H](NC(=O)c1cccc2ccccc12)C(C)(C)C)C(=O)N[C@H](C=O)CC(=O)O` [Example 29k], the IC50 is less than 2500 nM in test [1] and less than 500 nM in test [2]. This molecule returned an inhibition constant (Ki) at Caspase-1 of less than 10 nM.
Consider `CC(C)[C@H](NC(=O)c1ccc(O)cc1)C(=O)N[C@@H](C)C(=O)N[C@H](C=O)CC(=O)O` [Example 29l], for which the IC50 in test [1] is less than 2500 nM; in test [2], 500 to 1000 nM. Also, the Ki on Caspase-1 lay in the range of 10 to 1000 nM.
For `CC(=O)NC(C(=O)N1N=C(C(C)(C)C)SC1C(=O)NC(C=O)CC(=O)O)C(C)C` (stereo not drawn) [Example 42, 3-{[3-(2-acetylamino-3-methyl-butyryl)-5-tert-butyl-2,3-dihydro-[1,3,4]thiadiazole-2-carbonyl]-amino)-4-oxo-butyric acid], in that order: 2500 to 7500 nM, more than 2000 nM and 10 to 1000 nM.
As to `CC(C)C(NC(=O)c1ccc(N)c(Cl)c1)C(=O)N1CCCC1C(=O)NC(C=O)CC(=O)O` (stereo not drawn) [Example 61, 3-((1-[2-(4-Amino-3-chloro-benzoylamino)-3-methyl-butyryl]-pyrrolidine-2-carbonyl}-amino)-4-oxo-butyric acid], the IC50 in test [1] is less than 2500 nM; in test [2], 500 to 1000 nM. On Caspase-1, this molecule returned a Ki of less than 10 nM.
On the same counts, the results for `CC(C)(C)[C@H](NC(=O)c1ccc(N)c(Cl)c1)C(=O)N1CCCC1C(=O)N[C@H](C=O)CC(=O)O` (stereo partly drawn) [Example 73, 3-({-[2-(4-Amino-3-chloro-benzoylamino)-3,3-dimethyl-butyryl]-pyrrolidine-2-carbonyl}-amino)-4-oxo-butyric acid] are less than 2500 nM, 500 to 1000 nM and less than 10 nM.
For the molecule `C[C@H](NC(=O)c1ccccn1)C(=O)N1CCC[C@H]1C(=O)N[C@H](C=O)CC(=O)O` [Example 122e], the IC50 lay within 2500 to 7500 nM in test [1] and 1000 to 2000 nM in test [2]. Also, the Ki on Caspase-1 lay within 10 to 1000 nM.
Consider `C[C@H](NC(=O)c1cc(Cl)c(N)c(Cl)c1)C(=O)N1CCC[C@H]1C(=O)N[C@H](C=O)CC(=O)O` [Example 122g, 3-({1-[2-(4-Amino-3,5-dichloro-benzoylamino)-propionyl]-pyrrolidine-2-carbonyl}-amino)-4-oxo-butyric acid], for which the IC50 in test [1] was less than 2500 nM; in test [2], 500 to 1000 nM. Also, the inhibitory constant (Ki) at Caspase-1 was less than 10 nM.
Consider `CC(C)Oc1cccc(C(=O)N[C@@H](C)C(=O)N2CCC[C@H]2C(=O)N[C@H](C=O)CC(=O)O)c1` [Example 122h, 3-({1-[2-(3-Isopropoxy-benzoylamino)-propionyl]-pyrrolidine-2-carbonyl}-amino)-4-oxo-butyric acid], for which the IC50 was less than 2500 nM in test [1] and 1000 to 2000 nM in test [2]. The molecule further gave a Ki at Caspase-1 of 10 to 1000 nM.
As for `COc1ccc(C(=O)N[C@@H](C)C(=O)N2CCC[C@H]2C(=O)N[C@H](C=O)CC(=O)O)cc1OCc1ccccc1` [Example 122i, 3-({1-[2-(3-benzyloxy-4-methoxy-benzoylamino)-propionyl]-pyrrolidine-2-carbonyl}-amino)-4-oxo-butyric acid], the IC50 was less than 2500 nM in test [1] and 1000 to 2000 nM in test [2]. For the same molecule, the Ki at Caspase-1 was less than 10 nM.

Values taken from US20030232986A1, “Inhibitors of caspases” (Vertex Pharmaceuticals Incorporated, priority 1998, published 2003).
